Eight compounds from US6610853B1, “N-(phenylsulfonyl)picolinamide derivatives, process for producing the same, and herbicide” (Kureha Kagaku Kogyo K.K., priority 2000, dated 2003) can be followed below.

What all share (assay): Test on herbicidal activity by foliar application
Assay type in all cases: in vivo
Holding throughout (conditions): foliar spray, 1 kg/ha, plants at 1-2 leaf stage in pots, evaluated 14 days after spraying

For one assay, the system named is Galium aparine. As to the method:
(§1) Test on Herbicidal Activity by Foliar Application: Herbicidal solutions of each test compounds, which were prepared by dissolving at predetermined concentrations such a wettable powder of the test compound as that described in the above Formulation Example, were sprayed at dosages of 1 kg/ha over foliar parts of Amaranthus retroflexus, Bidens pilosa, Sinapis arvensis, Stellaria media, Solanum nigrum, Abutilon theophrasti, Convolvulus arvensis, Matricaria chamomilla, Galium aparine, Veronica hederaefolia, and Setaria viridis (each test plant is 1-2 leaf stage) which were grown in pots. 14 days latter after spraying, its herbicidal activity was evaluated in accordance with the below-described system. Herbicidal Activity 1: less than 30% inhibition 2: 30% or more-50% inhibition 3: 50% or more-70% inhibition 4: 70% or more-90% inhibition 5: 90% or more inhibition

A further assay deals with Solanum nigrum. On the procedure: as §1
A further assay has as its system Sinapis arvensis. On the procedure: as §1
Another assay has as its system Abutilon theophrasti. As to the method: as §1
The subject of the next assay is Veronica hederaefolia. On the procedure:
as §1

In the next assay the test system is Amaranthus retroflexus. As to the method:
as §1

For a further assay, the system named is Bidens pilosa. As to the method:
as §1

A further assay has as its system Matricaria chamomilla. On the procedure:
as §1

The next assay relates to Stellaria media. As to the method: as §1
A further assay has as its system Setaria viridis. On the procedure:
as §1

In another assay the test system is Convolvulus arvensis. On the procedure:
as §1

`COc1ccc(C(=O)NS(=O)(=O)c2ccccc2C(F)(F)F)nc1` [Compound I-054, N-[(2-Trifluoromethylphenyl)sulfonyl]-5-methoxy-2-pyridinecarboxamide]: in the assay on Galium aparine, the “Herbicidal activity, Galium aparine” value is given as 4 (70% or more-90% inhibition). Also, in the assay with Solanum nigrum, the “Herbicidal activity, Solanum nigrum” value is 4 (70% or more-90% inhibition). For the same compound, the “Herbicidal activity, Sinapis arvensis” value in the assay on Sinapis arvensis was 5 (90% or more inhibition). In addition, the “Herbicidal activity, Abutilon theophrasti” value with Abutilon theophrasti is listed as 2 (30% or more-50% inhibition). Moreover, the “Herbicidal activity, Veronica hederaefolia” value with Veronica hederaefolia is recorded as 4 (70% or more-90% inhibition). The “Herbicidal activity, Amaranthus retroflexus” value with Amaranthus retroflexus is recorded as 3 (50% or more-70% inhibition). Further, in the assay on Bidens pilosa, the “Herbicidal activity, Bidens pilosa” value was 5 (90% or more inhibition). Moreover, the “Herbicidal activity, Matricaria chamomilla” value in the assay on Matricaria chamomilla was 5 (90% or more inhibition). In addition, in the assay on Stellaria media, the “Herbicidal activity, Stellaria media” value was 5 (90% or more inhibition). Besides, the “Herbicidal activity, Setaria viridis” value in the assay on Setaria viridis was 5 (90% or more inhibition). In the assay on Convolvulus arvensis, the “Herbicidal activity, Convolvulus arvensis” value is reported as 3 (50% or more-70% inhibition).

With `COC(=O)c1ccccc1S(=O)(=O)NC(=O)c1ccc(OC)c(OC)n1` [Compound I-259, 2-[[[(5,6-Dimethoxypyridin-2-yl)carbonyl]-amino]sulfonyl]benzoic Acid Methyl Ester], the “Herbicidal activity, Galium aparine” value in the assay with Galium aparine is on record as 5 (90% or more inhibition). Besides, the “Herbicidal activity, Solanum nigrum” value in the assay with Solanum nigrum was 4 (70% or more-90% inhibition). Further, in the assay on Sinapis arvensis, the “Herbicidal activity, Sinapis arvensis” value is given as 5 (90% or more inhibition). The “Herbicidal activity, Abutilon theophrasti” value in the assay on Abutilon theophrasti is 5 (90% or more inhibition). Also, the “Herbicidal activity, Veronica hederaefolia” value in the assay on Veronica hederaefolia is listed as 4 (70% or more-90% inhibition). In addition, the “Herbicidal activity, Amaranthus retroflexus” value with Amaranthus retroflexus is given as 5 (90% or more inhibition). Moreover, the “Herbicidal activity, Bidens pilosa” value with Bidens pilosa was 4 (70% or more-90% inhibition). Besides, the “Herbicidal activity, Matricaria chamomilla” value in the assay on Matricaria chamomilla is given as 4 (70% or more-90% inhibition). The “Herbicidal activity, Stellaria media” value in the assay on Stellaria media was 5 (90% or more inhibition). The “Herbicidal activity, Setaria viridis” value in the assay with Setaria viridis is on record as 4 (70% or more-90% inhibition). The “Herbicidal activity, Convolvulus arvensis” value with Convolvulus arvensis was 3 (50% or more-70% inhibition).

Regarding `Cc1nc(C(=O)NS(=O)(=O)c2ccccc2S(=O)(=O)N(C)C)ccc1[N+](=O)[O-]` [Compound I-868, N-[[2-(N,N-Dimethylaminosulfonyl)phenyl]-sulfonyl]-6-methyl-5-nitro-2-pyridinecarboxamide], the “Herbicidal activity, Galium aparine” value in the assay on Galium aparine is given as 5 (90% or more inhibition). Besides, the “Herbicidal activity, Solanum nigrum” value with Solanum nigrum is on record as 4 (70% or more-90% inhibition). Besides, the “Herbicidal activity, Sinapis arvensis” value in the assay on Sinapis arvensis is 5 (90% or more inhibition). Further, the “Herbicidal activity, Abutilon theophrasti” value in the assay with Abutilon theophrasti is listed as 3 (50% or more-70% inhibition). For the same compound, the “Herbicidal activity, Veronica hederaefolia” value in the assay with Veronica hederaefolia is 3 (50% or more-70% inhibition). For the same compound, the “Herbicidal activity, Amaranthus retroflexus” value in the assay on Amaranthus retroflexus is 3 (50% or more-70% inhibition). In the assay with Bidens pilosa, the “Herbicidal activity, Bidens pilosa” value is 5 (90% or more inhibition). In addition, the “Herbicidal activity, Matricaria chamomilla” value in the assay with Matricaria chamomilla is reported as 2 (30% or more-50% inhibition). The “Herbicidal activity, Stellaria media” value in the assay with Stellaria media was 4 (70% or more-90% inhibition). Also, the “Herbicidal activity, Setaria viridis” value with Setaria viridis was 3 (50% or more-70% inhibition). For the same compound, the “Herbicidal activity, Convolvulus arvensis” value in the assay with Convolvulus arvensis is recorded as 3 (50% or more-70% inhibition).

Take `COC(=O)c1ccccc1S(=O)(=O)NC(=O)c1ccc(OC)c(Br)n1` [Compound I-265, 2-[[[(6-Bromo-5-methoxypyridin-2-yl)carbonyl]-amino]sulfonyl]benzoic acid methyl ester]: the “Herbicidal activity, Galium aparine” value in the assay on Galium aparine is on record as 4 (70% or more-90% inhibition). Besides, in the assay on Solanum nigrum, the “Herbicidal activity, Solanum nigrum” value is recorded as 5 (90% or more inhibition). Moreover, in the assay with Sinapis arvensis, the “Herbicidal activity, Sinapis arvensis” value is listed as 5 (90% or more inhibition). In the assay on Abutilon theophrasti, the “Herbicidal activity, Abutilon theophrasti” value is reported as 5 (90% or more inhibition). In the assay with Veronica hederaefolia, the “Herbicidal activity, Veronica hederaefolia” value was 3 (50% or more-70% inhibition). Moreover, the “Herbicidal activity, Amaranthus retroflexus” value in the assay with Amaranthus retroflexus is 5 (90% or more inhibition). In addition, in the assay on Bidens pilosa, the “Herbicidal activity, Bidens pilosa” value is on record as 5 (90% or more inhibition). The “Herbicidal activity, Matricaria chamomilla” value in the assay on Matricaria chamomilla is recorded as 5 (90% or more inhibition). In the assay on Stellaria media, the “Herbicidal activity, Stellaria media” value is 5 (90% or more inhibition). Besides, the “Herbicidal activity, Setaria viridis” value in the assay with Setaria viridis is listed as 4 (70% or more-90% inhibition). Moreover, the “Herbicidal activity, Convolvulus arvensis” value with Convolvulus arvensis was 3 (50% or more-70% inhibition).

For `COc1ccc(C(=O)NS(=O)(=O)c2c(Cl)cccc2Cl)nc1Cl` [Compound I-618, N-[(2,6-Dichlorophenyl)sulfonyl]-6-chloro-5-methoxy-2-pyridinecarboxamide], the “Herbicidal activity, Galium aparine” value in the assay on Galium aparine is recorded as 4 (70% or more-90% inhibition). Also, the “Herbicidal activity, Solanum nigrum” value in the assay on Solanum nigrum was 5 (90% or more inhibition). Moreover, the “Herbicidal activity, Sinapis arvensis” value in the assay on Sinapis arvensis is 5 (90% or more inhibition). In addition, the “Herbicidal activity, Abutilon theophrasti” value with Abutilon theophrasti is 5 (90% or more inhibition). In addition, the “Herbicidal activity, Veronica hederaefolia” value with Veronica hederaefolia is on record as 5 (90% or more inhibition). Moreover, in the assay on Amaranthus retroflexus, the “Herbicidal activity, Amaranthus retroflexus” value is 2 (30% or more-50% inhibition). For the same compound, in the assay on Bidens pilosa, the “Herbicidal activity, Bidens pilosa” value is recorded as 5 (90% or more inhibition). In addition, the “Herbicidal activity, Matricaria chamomilla” value in the assay with Matricaria chamomilla is given as 5 (90% or more inhibition). In addition, the “Herbicidal activity, Stellaria media” value in the assay on Stellaria media was 5 (90% or more inhibition). For the same compound, the “Herbicidal activity, Setaria viridis” value with Setaria viridis is recorded as 2 (30% or more-50% inhibition). Also, the “Herbicidal activity, Convolvulus arvensis” value in the assay with Convolvulus arvensis is listed as 3 (50% or more-70% inhibition).

As to `COC(=O)c1ccccc1S(=O)(=O)NC(=O)c1cc(Cl)cc(OC)n1` [Compound I-221, 2-[[[(4-Chloro-6-methoxypyridin-2-yl)carbonyl]-amino]sulfonyl]benzoic Acid Methyl Ester], in the assay with Galium aparine, the “Herbicidal activity, Galium aparine” value was 5 (90% or more inhibition). For the same compound, in the assay with Solanum nigrum, the “Herbicidal activity, Solanum nigrum” value is given as 5 (90% or more inhibition). Besides, the “Herbicidal activity, Sinapis arvensis” value in the assay on Sinapis arvensis was 5 (90% or more inhibition). In the assay with Abutilon theophrasti, the “Herbicidal activity, Abutilon theophrasti” value is 4 (70% or more-90% inhibition). Also, the “Herbicidal activity, Veronica hederaefolia” value with Veronica hederaefolia is 4 (70% or more-90% inhibition). Also, the “Herbicidal activity, Amaranthus retroflexus” value with Amaranthus retroflexus is 5 (90% or more inhibition). Further, the “Herbicidal activity, Bidens pilosa” value with Bidens pilosa is 4 (70% or more-90% inhibition). The “Herbicidal activity, Matricaria chamomilla” value in the assay with Matricaria chamomilla was 2 (30% or more-50% inhibition). Moreover, the “Herbicidal activity, Stellaria media” value in the assay with Stellaria media is reported as 4 (70% or more-90% inhibition). In addition, in the assay on Setaria viridis, the “Herbicidal activity, Setaria viridis” value is 3 (50% or more-70% inhibition). In addition, the “Herbicidal activity, Convolvulus arvensis” value with Convolvulus arvensis was 4 (70% or more-90% inhibition).

Turning to `COc1ccc(C(=O)NS(=O)(=O)c2ccccc2OC(F)(F)F)nc1[N+](=O)[O-]` [Compound I-778], the “Herbicidal activity, Galium aparine” value in the assay with Galium aparine is 4 (70% or more-90% inhibition). In addition, the “Herbicidal activity, Solanum nigrum” value in the assay on Solanum nigrum is recorded as 5 (90% or more inhibition). The “Herbicidal activity, Sinapis arvensis” value in the assay with Sinapis arvensis is 5 (90% or more inhibition). The “Herbicidal activity, Abutilon theophrasti” value with Abutilon theophrasti is on record as 5 (90% or more inhibition). For the same compound, the “Herbicidal activity, Veronica hederaefolia” value with Veronica hederaefolia is reported as 2 (30% or more-50% inhibition). In addition, the “Herbicidal activity, Amaranthus retroflexus” value in the assay on Amaranthus retroflexus is 4 (70% or more-90% inhibition). The “Herbicidal activity, Bidens pilosa” value in the assay on Bidens pilosa is given as 5 (90% or more inhibition). Moreover, the “Herbicidal activity, Matricaria chamomilla” value in the assay on Matricaria chamomilla is 5 (90% or more inhibition). Also, the “Herbicidal activity, Stellaria media” value in the assay on Stellaria media is on record as 3 (50% or more-70% inhibition). In the assay on Setaria viridis, the “Herbicidal activity, Setaria viridis” value was 3 (50% or more-70% inhibition). In addition, the “Herbicidal activity, Convolvulus arvensis” value in the assay on Convolvulus arvensis is reported as 5 (90% or more inhibition).

Consider `COc1ccc(C(=O)NS(=O)(=O)c2ccccc2S(=O)(=O)N(C)C)nc1` [Compound I-864], for which the “Herbicidal activity, Galium aparine” value in the assay with Galium aparine is 4 (70% or more-90% inhibition). Also, the “Herbicidal activity, Solanum nigrum” value in the assay on Solanum nigrum is on record as 4 (70% or more-90% inhibition). In addition, in the assay with Sinapis arvensis, the “Herbicidal activity, Sinapis arvensis” value is given as 5 (90% or more inhibition). Also, the “Herbicidal activity, Abutilon theophrasti” value with Abutilon theophrasti is 5 (90% or more inhibition). Besides, the “Herbicidal activity, Veronica hederaefolia” value in the assay on Veronica hederaefolia is on record as 4 (70% or more-90% inhibition). For the same compound, the “Herbicidal activity, Amaranthus retroflexus” value with Amaranthus retroflexus is reported as 3 (50% or more-70% inhibition). Also, the “Herbicidal activity, Bidens pilosa” value in the assay with Bidens pilosa is 5 (90% or more inhibition). Further, the “Herbicidal activity, Matricaria chamomilla” value in the assay with Matricaria chamomilla is given as 5 (90% or more inhibition). Also, the “Herbicidal activity, Stellaria media” value in the assay with Stellaria media is given as 5 (90% or more inhibition). In the assay with Setaria viridis, the “Herbicidal activity, Setaria viridis” value is reported as 4 (70% or more-90% inhibition). Moreover, the “Herbicidal activity, Convolvulus arvensis” value in the assay with Convolvulus arvensis is 3 (50% or more-70% inhibition).
